The results in this text go back to patent US10835535B2, “Certain protein kinase inhibitors” (Shanghai Fochon Pharmaceutical Co., Ltd., priority 2016, dated 2020).

Usually IC50 stands for the concentration that inhibits the measured activity by half. Lower therefore signals greater potency in that assay. The term AUC(0-inf) denotes the area under the concentration-time curve extrapolated to infinity. Lower therefore signals less exposure. Usually AUC(0-t) stands for the area under the concentration-time curve up to a stated or last time point. The term Cmax denotes the maximum level reached in the sampled fluid or tissue. As usually defined, the half-life is the time in which the quantity being followed falls by half. Read a high half-life as slow decline.

Molecules are shown by their SMILES.

The test system of one series is JEKO-1 cells. Nature of the series: Cell proliferation assay (MTS) in JEKO-1 cells. The series is classed as cell-based. The following applies: Homo sapiens, 48 h. The text has this: (§1) MTS testing kit was purchased from Promega. The DMEM, Fetal bovine serum and Penicillin-Streptomycin were purchased from Gibco. Dimethyl sulfoxide (DMSO) was purchased from Sigma.
(§2) To investigate whether a compound is able to inhibit the activity of CDK4/6 in cells, mechanism-based assays using BE2C (ATCC® number: CRL-2268) or JEKO-1 (ATCC® number: CRL-3006) cell were developed. In the assay, inhibition of CDK4/6 was detected by the inhibition of BE2C or JEKO-1 cell cells proliferation. BE2C or JEKO-1 cell cells were cultured in culture flasks to 40-80% confluence in DMEM plus 10% fetal bovine serum. Cells were collected and plated onto 96-well plates at desired cell density (BE2C: 3000 cells/well; JEKO-1: 30000 cells/well). Plates were incubated overnight at 37° C., with 5% CO2 to adhere. Compounds were added to the plates, the final compound concentrations were 10000, 3333, 1111, […], 123.5, 41.2, 13.7, 4.6 and 1.5 nM. Place plates at 37° C., with 5% CO2 for 48 h. After removing the medium, 20 μl MTS/100 μl medium mixture solution were added to each well and incubate the plates for exactly 2 hours. Stop the reaction by adding 25 μl 10% SDS per well. Measure absorbance at 490 nm and 650 nm (reference wavelength). IC50 was calculated using GraphPad Prism 5.0.
(§3) Select compounds prepared as described above were assayed according to the biological procedures described herein. “+++” stands for IC50 value between greater than about 10 nM to about 100 nM. “++” stands for IC50 value between greater than about 100 nM to about 1 μM. “+” stands for IC50 value greater than 1 μM.

The next series concerns BE2C cells. Nature of the series: Cell proliferation assay (MTS) in BE2C cells. The following applies: Homo sapiens, BE(2)-C, 48 h. The series is classed as cell-based.
Excerpt: as §1, §2, §3

A further series concerns COLO205 xenograft tumors. Nature of the series: Tumor growth inhibition in COLO205 xenograft tumors. The series is classed as in vivo, mice. The following applies: for TGI %: TGI = (1−T/C)×100%. The method, then:
COLO205 cells were cultured with RPMI-1640 medium containing 10% fetal bovine serum (FBS) at 37° C. in 5% CO^2 incubator. Logarithmic growth phase cells were collected. COLO205 cells (5×10^6 in 200 μL PBS) were implanted subcutaneously into the left flank region, and tumor growth was monitored. Tumor volume (V) was estimated from the length (l) and width (w) of the tumor using the following formula: V=1/2×l×w^2. Treatment started when average tumor size was 100-200 mm^3.
The dosage and dosage regimen were as shown table 2. Tumor volumes and mice weight were measured 2 to 3 times every week.
Drug efficacy was assessed as Tumor Growth Inhibition (TGI) and T/C ratio. TGI was defined as (1−T/C)×100%, wherein T/C (%) presented the ratio of the change in mean tumor volume of the treated group and of the control group.

Series [1] is described as follows: Pharmacokinetic properties in dogs. The series is classed as in vivo. The conditions noted are these: dog, po; male Beagle dogs, 3 mg/kg p.o., plasma. The method, then:
Each test compounds was suspended in 0.5% methylcellulose (400 cP, w/v) in water.
Grouping male Beagle dogs was administered with test compound at a dose of 3 mg/kg by oral. After administering, blood samples were collected at time points of 0.25, 0.50, 1.0, 2.0, 4.0, 8.0 and 24.0 h. Standard curve was plotted based on concentrations of the samples in a suitable range, and the concentration of test compounds in plasma samples were determined by using LC-MS/MS. Pharmacokinetic parameters were calculated according to drug concentration-time curve using a non-compartmental method by Phoenix WinNonLin 6.3 software.

On to `CN(C)C(=O)c1sc2cnc(Nc3ccc(N4CCN(C5CCNCC5)CC4)cn3)nc2c1C1CCCC1` [Example 1, 7-cyclopentyl-N,N-dimethyl-2-((5-(4-(piperidin-4-yl)piperazin-1-yl)pyridin-2-yl)amino)thieno[3,2-d]pyrimidine-6-carboxamide], for which the 50% inhibitory concentration (IC50) in the series with JEKO-1 cells lay within 100 to 1000 nM.
Turning to `CCN1CCC(N2CCN(c3ccc(Nc4ncc5sc(C(=O)N(C)C)c(C6CCCC6)c5n4)nc3)CC2)CC1` [Example 2, 7-cyclopentyl-2-((5-(4-(1-ethylpiperidin-4-yl)piperazin-1-yl)pyridin-2-yl)amino)-N,N-dimethylthieno[3,2-d]pyrimidine-6-carboxamide], in the series on BE2C cells, the IC50 was in the range of 10 to 100 nM. The IC50 in the series on JEKO-1 cells is 100 to 1000 nM. For the same molecule, in the series with COLO205 xenograft tumors (30 mg/kg PO QD × 14 days), the T/C % stood at 0.88% and the TGI % was found to be 99.12%. In series [1], this molecule had an AUC(0-inf) of 7010 ng·h/mL, an area under the curve AUC(0-t) of 2500 ng·h/mL, a Cmax of 127 ng/mL and a half-life of 26 h.
With `CN1CCC(N2CCN(c3ccc(Nc4ncc5sc(C(=O)N(C)C)c(C6CCCC6)c5n4)nc3)CC2)CC1` [Example 3, 7-cyclopentyl-N,N-dimethyl-2-((5-(4-(1-methylpiperidin-4-yl)piperazin-1-yl)pyridin-2-yl)amino)thieno[3,2-d]pyrimidine-6-carboxamide], the IC50 in the series on BE2C cells lay in the range of 10 to 100 nM; in the series on JEKO-1 cells, 100 to 1000 nM.
Take `CN(C)C(=O)c1sc2cnc(Nc3ccc(N4CCC(N5CCNCC5)CC4)cn3)nc2c1C1CCCC1` [Example 4, 7-cyclopentyl-N,N-dimethyl-2-((5-(4-(piperazin-1-yl)piperidin-1-yl)pyridin-2-yl)amino)thieno[3,2-d]pyrimidine-6-carboxamide]: in the series with BE2C cells, the IC50 is 100 to 1000 nM.
`CN1CCN(C2CCN(c3ccc(Nc4ncc5sc(C(=O)N(C)C)c(C6CCCC6)c5n4)nc3)CC2)CC1` [Example 5, 7-cyclopentyl-N,N-dimethyl-2-((5-(4-(4-methylpiperazin-1-yl)piperidin-1-yl)pyridin-2-yl)amino)thieno[3,2-d]pyrimidine-6-carboxamide] returned an IC50 in the series on BE2C cells of 10 to 100 nM. In the series with JEKO-1 cells, this molecule displayed a half-maximal inhibitory concentration (IC50) of 10 to 100 nM. In the series on COLO205 xenograft tumors (60 mg/kg PO QD × 14 days), the T/C % is listed as −2.31% and the TGI % was determined as 102.31%. In series [1], this molecule showed an AUC(0-inf) of 7520 ng·h/mL, an AUC(0-t) of 4660 ng·h/mL, a Cmax of 312 ng/mL and a half-life of 16.1 h.
In turn, `CCN1CCN(C2CCN(c3ccc(Nc4ncc5sc(C(=O)N(C)C)c(C6CCCC6)c5n4)nc3)CC2)CC1` [Example 6, 7-cyclopentyl-2-((5-(4-(4-ethylpiperazin-1-yl)piperidin-1-yl)pyridin-2-yl)amino)-N,N-dimethylthieno[3,2-d]pyrimidine-6-carboxamide] registered a concentration for half-maximal inhibition (IC50) in the series with BE2C cells of 10 to 100 nM. The molecule also registered an IC50 with JEKO-1 cells of 10 to 100 nM. In addition, in the series with COLO205 xenograft tumors (60 mg/kg PO QD × 14 days), the T/C % is −2.97% and the TGI % turned out to be 102.97%. In series [1], this molecule showed an area under the curve AUC(0-inf) of 7340 ng·h/mL, an AUC(0-t) of 5030 ng·h/mL, a Cmax of 404 ng/mL and a half-life of 13.2 h.
In turn, `CN(C)C(=O)c1sc2cnc(Nc3ccc(N4CCC(N5CCOCC5)CC4)cn3)nc2c1C1CCCC1` [Example 7, 7-cyclopentyl-N,N-dimethyl-2-((5-(4-morpholinopiperidin-1-yl)pyridin-2-yl)amino)thieno[3,2-d]pyrimidine-6-carboxamide] returned a half-maximal inhibitory concentration (IC50) in the series on BE2C cells of 10 to 100 nM.
With `CN1CCN(c2ccc(Nc3ncc4sc(C(=O)N(C)C)c(C5CCCC5)c4n3)nc2)CC1` [Reference Compound 1, 7-cyclopentyl-N,N-dimethyl-2-(5-(4-methylpiperazin-1-yl)pyridin-2-ylamino)thieno[3,2-d]pyrimidine-6-carboxamide, reference compound], in series [1], the area under the curve AUC(0-inf) was found to be 103 ng·h/mL, the exposure AUC(0-t) was 83 ng·h/mL, the peak level (Cmax) was 36 ng/mL and the half-life was 5.36 h.
As for `CN(C)C(=O)c1cc2cnc(Nc3ccc(N4CCNCC4)cn3)nc2n1C1CCCC1` [Ribociclib, reference compound], in the series on COLO205 xenograft tumors (60 mg/kg PO QD × 14 days), the T/C % turned out to be 25.6% and the TGI % stood at 74.40%.
